# Results taken from patent publication US20140017157A1, “ANTITUMOR AGENT COMPRISING CARBON DIOXIDE AS AN ACTIVE INGREDIENT” (NEOCHEMIR INC., priority 2011, published 2014).
# Key:
# [1] = Body weight as an indicator of the side effect after a single dose (Example 7); assay type: in vivo, nude mice; conditions: single treatment (CO2 10 minutes; adriamycin 3 mg/kg); FIG. 15
# Method: (§1) A breast carcinoma cell line MDA-MB-231, which is […], was subcutaneously implanted in the back of the 23 nude mice of 5 weeks old at 20 million cells/mouse. On the 18th day after the implantation, body weight and tumor volume of each nude mouse were measured. The mice were divided into the following 4 groups so that the variation in tumor volumes and body weights are reduced. The treatment was done according to Example 1 (Table 8), but only once.
# [2] = system: breast carcinoma cell line MDA-MB-231; experiment: Antitumor effects (4) of a single dose against the implanted tumors in nude mice (Example 7); assay type: in vivo; conditions: 3rd day after starting of the treatment; single treatment (CO2 10 minutes; adriamycin 3 mg/kg); FIG. 14
# Method: as §1
# (§2) Tumor volume was calculated by the following equation: (Maximum diameter of implanted tumor mass)×(Minimum diameter of implanted tumor mass)×(Minimum diameter of implanted tumor mass)×½. The measurement of tumor volume was done on the 3rd day after starting of the treatment.
# cell line NaraH [3] = experiment: Combined effects with a chemotherapeutic agent against the implanted tumors in nude mice (Example 4); assay type: in vivo; conditions: t-test; for tumor volume compared to the control group: adriamycin 6 mg/kg, CO2 twice-weekly; for Significance level for control group (tumor volume): P
# Method: (§3) A cell line NaraH, which is the cell line of a malignant soft tissue tumor, was subcutaneously implanted in the back of the 17 nude mice of 5 weeks old at 12 million cells/mouse. After the implantation, body weight and tumor volume of each nude mouse were measured. The mice were divided into the following 3 groups so that the variation in tumor volumes and body weights are reduced. The treatment according to Example 1 was started on the 3rd day after the implantation (Table 2).
# as §2, with “The treatment was done for 9 days. Tumor” for “Tumor”, “3rd, 7th and 9th” for “3rd”, “tumor implantation.” for “starting of the treatment.”
# [4] = Body weight of tumor-bearing nude mice as an indication of a side effect (Example 5); assay type: in vivo; conditions: FIG. 12; for weight reduction as an indicator of a side effect compared to the control group: adriamycin 4 mg/kg
# Method: MDA-MB-231, a cell line of a malignant breast carcinoma, was subcutaneously implanted in the back of the 18 nude mice of 5 weeks old at 12 million cells/mouse. On the 53rd day after the implantation, body weight and tumor volume of each nude mouse were measured. The mice were divided into the following 4 groups so that the variation in tumor volumes and body weights are reduced. The treatment was done according to Example 1 (Table 5). […] The starting date of the test was defined as the 0 day and each treatment was done on the 1st, 5th, 8th, 12th and 15th day. Tumor volume was calculated by the following equation: (Maximum diameter of implanted tumor mass)×(Minimum diameter of implanted tumor mass)×(Minimum diameter of implanted tumor mass)×½. The measurement of tumor volume was done on the 8th and 15th day after tumor implantation. The measurement of body weights of the nude mice as an indication of a side effect was done on the 8th and 15th day after tumor implantation.
# MDA-MB-231 = experiment: Combined effects with a chemotherapeutic agent against the implanted malignant breast carcinoma in nude mice (Example 5); assay type: in vivo; conditions: t-test; for tumor volume compared to the control group: 15th day after tumor implantation (so in the source), adriamycin 4 mg/kg; for Significance level for control group (tumor volume): P, 15th day, Table 6
# Method: MDA-MB-231, a cell line of a malignant breast carcinoma, was subcutaneously implanted in the back of the 18 nude mice of 5 weeks old at 12 million cells/mouse. On the 53rd day after the implantation, body weight and tumor volume of each nude mouse were measured. The mice were divided into the following 4 groups so that the variation in tumor volumes and body weights are reduced. The treatment was done according to Example 1 (Table 5).
# The starting date of the test was defined as the 0 day and each treatment was done on the 1st, 5th, 8th, 12th and 15th day. Tumor volume was calculated by the following equation: (Maximum diameter of implanted tumor mass)×(Minimum diameter of implanted tumor mass)×(Minimum diameter of implanted tumor mass)×½. The measurement of tumor volume was done on the 8th and 15th day after tumor implantation. The measurement of body weights of the nude mice as an indication of a side effect was done on the 8th and 15th day after tumor implantation.
# MFH cell line NaraH [5] = experiment: Antitumor effects (2) against the implanted tumors in nude mice (Example 2); assay type: in vivo
# Method: An MFH cell line NaraH, which is the cell line of a malignant soft tissue tumor, was subcutaneously implanted in the back of the 12 nude mice of 5 weeks old at 12 million cells/mouse. After the implantation, body weight and tumor volume of each nude mouse were measured. The mice were divided into 2 groups so that the variation in tumor volumes and body weights are reduced. That is, one is carbon dioxide absorption group and the other is control group treated in the same way as carbon dioxide absorption group but without the carbon dioxide absorption treatment. The treatment according to Example 1 was started on the 3rd day after the implantation. The carbon dioxide absorption was done twice-weekly and the treatment was done for 14 days. The carbon dioxide absorption was done a total of 3 times. Tumor volume was calculated by the following equation: (Maximum diameter of implanted tumor mass)×(Minimum diameter of implanted tumor mass)×(Minimum diameter of implanted tumor mass)×½. The measurement of tumor volume was done on the 3rd, 7th, 10th and 14th day after the tumor implantation.
# MFH cell line NaraH [6] = experiment: Antitumor effects (1) against the implanted tumors in nude mice (Example 1); assay type: in vivo
# Method: An MFH cell line NaraH, which is the cell line of a malignant soft tissue tumor, was subcutaneously implanted in the back of the 10 nude mice of 5 weeks old at 12 million cells/mouse. After the implantation, body weight and tumor volume of each nude mouse were measured. The mice were divided into two groups so that the variation in tumor volumes and body weights are reduced. That is, one is carbon dioxide absorption group and the other is control group treated in the same way as carbon dioxide absorption group but without the carbon dioxide absorption treatment. A treatment was started on the 2nd day after the implantation. After anesthetizing all groups by ether inhalation, the treatment was done according to the patent document 7, that is, an absorption aid for carbon dioxide comprising 93.77% by mass of water, 5% by mass of glycerin, 0.65% by mass of carbomer, 0.15% by mass of sodium alginate, 0.15% by mass of sodium dihydrogen phosphate, 0.18% by mass of sodium hydroxide and 0.10% by mass of methylparaben was applied 2 mm thick to the dorsal skin wherein a tumor has been implanted. […] Tumor volume was calculated by the following equation: (Maximum diameter of implanted tumor mass)×(Minimum diameter of implanted tumor mass)×(Minimum diameter of implanted tumor mass)×[…]. […]
# cell line NaraH [7] = experiment: Antitumor effects (3) against the implanted tumors in nude mice, two regimens (Example 3); assay type: in vivo; conditions: t-test
# Method: as §3, with “An MPH cell” for “A cell”, “the 20” for “the 17”, “volume” for “volume of each nude mouse”, “(Table 1).” for “(Table 2).”
# as §2, with “The treatment was done for 16 days. Tumor” for “Tumor”, “3rd, 7th, 10th, 14th and 16th” for “3rd”, “tumor implantation.” for “starting of the treatment.”
# cell line LM-8 = experiment: Effects against the implanted highly lung-metastatic tumors in nude mice (Example 8); assay type: in vivo
# Method: A cell line LM-8, which is the cell line of a highly lung-metastatic tumor, was subcutaneously implanted in the back of the 11 nude mice of 5 weeks old at 1 million cells/mouse. On the 3rd day after the implantation, body weight and tumor volume of each nude mouse were measured. The mice were divided into two groups so that the variation in tumor volumes and body weights are reduced. That is, one is carbon dioxide absorption group (6 mice) and the other is control group (5 mice) treated in the same way as the carbon dioxide absorption group but without the carbon dioxide absorption treatment. The treatment according to Example 1 was started on the 3rd day after the implantation. The carbon dioxide absorption was done three times-weekly and the treatment was done for 14 days. The carbon dioxide absorption was done a total of 6 times. Tumor volume was calculated by the following equation: (Maximum diameter of implanted tumor mass)×(Minimum diameter of implanted tumor mass)×(Minimum diameter of implanted tumor mass)×½. The measurement of tumor volume was done on the 3rd, 7th, 10th, 14th, 17th and 21st day after the tumor implantation. On the 21st day after the tumor implantation, a lung of each mouse was isolated and the lung weight was measured. The cross-sections of the lung, where the metastasized tumor have been stained by hematoxylin and eosin, were chosen at random and a proportion of the stained area in the cross-section was analyzed by using an image analyzing software ImageJ to obtain the lung metastasis rate of the tumor.
# [8] = 7th day after tumor implantation
# [9] = 9th day after tumor implantation
# [10] = 7th day after tumor implantation, Table 3
# [11] = 9th day after tumor implantation, Table 4
# [12] = 14 days treatment, twice-weekly CO2 absorption
SMILES,body weight reduction as an indicator of the side effect [1],tumor volume relative to initial volume [2],tumor volume compared to the control group (cell line NaraH [3]; [8]),tumor volume compared to the control group (cell line NaraH [3]; [9]),Significance level for control group (tumor volume) (cell line NaraH [3]; [10]),Significance level for control group (tumor volume) (cell line NaraH [3]; [11]),weight reduction as an indicator of a side effect compared to the control group [4],tumor volume compared to the control group (MDA-MB-231),Significance level for control group (tumor volume) (MDA-MB-231),further results
"COc1cccc2c1C(=O)c1c(O)c3c(c(O)c1C2=O)C[C@@](O)(C(=O)CO)C[C@@H]3O[C@H]1C[C@H](N)[C@H](O)[C@H](C)O1 [chemotherapeutic agent, adriamycin, reference compound]",reduced,not changed,statistically significantly reduced,statistically significantly reduced,P < 0.005,P < 0.05,statistically significant,statistically significantly reduced,P < 0.005,significance level (P) of weight reduction compared to the carbon dioxide-alone group [4]: < 0.05; weight reduction compared to the carbon dioxide-alone group [4]: Significant weight reduction was found
O=C=O [carbon dioxide],not observed,reduced to two-thirds of initial volumes,statistically significantly reduced,statistically significantly reduced,P < 0.001,P < 0.05,significant weight reduction was not found,statistically significantly reduced,P < 0.001,"tumor volume compared to the control group (MFH cell line NaraH [5]; 14th day after tumor implantation, twice-weekly, total of 3 times, t-test, FIG. 2): statistically significantly reduced; deaths during experimental period (MFH cell line NaraH [5]; [12]): no deaths; tumor volume compared to the control group (MFH cell line NaraH [6]; 16th day after tumor implantation, transdermal CO2 absorption 10 minutes, twice-weekly, total of 4 times, t-test, FIG. 1): statistically significantly reduced; deaths during the experiment period (MFH cell line NaraH [6]; [12]): no deaths; tumor volume compared to the control group (cell line NaraH [7]; group of 5 times-weekly administration early in treatment (5 consecutive days from first day), FIG. 4): statistically significantly reduced; tumor volume compared to the control group (cell line NaraH [7]; group of twice-weekly administration, treatment 16 days, FIG. 3): statistically significantly reduced; lung weights compared to the control group (cell line LM-8; 21st day after tumor implantation, CO2 three times-weekly, total of 6 times, t-test, FIG. 16): statistically significantly reduced; lung metastasis rates compared to the control group (cell line LM-8; 21st day after tumor implantation, proportion of stained area in lung cross-section, t-test, FIG. 17): statistically significantly reduced; significance level (P) of lung weight reduction compared to the control group (cell line LM-8; 21st day, t-test, FIG. 16): < 0.05; significance level (P) of lung metastasis rate reduction compared to the control group (cell line LM-8; 21st day, t-test, FIG. 17): < 0.05; deaths during the experiment period (cell line LM-8; CO2 three times-weekly for 14 days): no deaths; subcutaneously-implanted tumor volumes compared to the control group (cell line LM-8; CO2 three times-weekly, total of 6 times, t-test, FIG. 18): statistically significantly reduced; significance level (P) of subcutaneously-implanted tumor volume reduction compared to the control group (cell line LM-8; t-test, FIG. 18): < 0.05"
